Reference: US12180612B2, “Plant tissue-derived nanofibres” (priority 2018, dated 2024)
Where “and” joins values, the source holds several entries; their conditions need not be identical. Identical values can stand only once. Entries after “also recorded” stand apart in the source; their conditions may differ. Like-named read-outs stand apart in the source and are kept apart here.

Key:
HT 29 cells = assay: Uptake of calcein and calcein-loaded nanofibres, confocal microscopy; format: cell-based, human
Procedure: (§1) Calcein uptake into HT 29, CRL 1790 cells: Uptake of calcein-loaded nanoparticles into mammalian cells. Calcein by itself is impermeable through membrane, and may be taken up at a low level by endocytosis. Ethanol-bleached cherry was homogenized in water, also containing 1 mg/g fresh weight equivalent of calcein, and the supernatant dialyzed against water. Calcein complexed to nanofilaments is retained within the dialysis bag, and used for uptake measurements by confocal microscopy.
(§2) Uptake of complexed molecules by nanofibres: Nanofibres are extremely long (micrometers in length, ˜5 nm in diameter; see FIG. 37, for example), and their ability to cross the plasma membrane was investigated. In this experiment, the ability of nanofibres to form natural complexes with a membrane impermeable fluorescent dye, calcein, was investigated. Nanofibres where prepared from ethanol-bleached cherry by procedures described herein above. […] HT-29 and CRL-1790 cells were incubated in the presence of calcein alone, and calcein-complexed nanofibres (of equal fluorescence intensity). Uptake of calcein and calcein complexed with nanofibres were monitored by confocal microscopy. […] Similar experiments were also conducted with nanoparticles, however, because of quenching of fluorescence by polyphenols, successful acquisition of images was not achieved.

[1] = system: normal human intestinal CRL 1790 cells; assay: as above; format: cell-based
Procedure: as §1, §2

[2] = system: human colorectal cancer cells (HT 29); conditions: B-Live/Dead cell analysis; paclitaxel 32 nM, 24 h, without or with nanofibre 4 μg/ml
Procedure: (§3) Live-Dead cell analysis: Cells were grown as confluent and subconfluent monolayers for 24 h as described previously (Hakimuddin et al., 2004). Cells were treated with paclitaxel, or paclitaxel along with nanofibers for 12 h (Appropriate amounts of paclitaxel and nanofibers were mixed in 5% DMSO in water, and added to the cells). Cells were washed with phosphate buffer and cell viability tests performed on CRL 1790, CRL 2158 and HT 29 cells using a live/dead cell viability kit (Invitrogen, Mississauga, Ontario) as described by the manufacturer. Live dead cells were visualized under a confocal microscope. The assay kit contains two fluorescent dyes, calcein AM ester (Ex 494 nm, Em 517 nm) which specifically enters live cells, gets de-esterified and stains the live cells green. The dying cells as well as dead cells are membrane compromised (leaky plasma membrane) and allows the entry of ethidium homodimer Ex 517 nm/Em 617), which stains the nucleus red.
(§4) Differentiating cytotoxicity by Live-Dead cell analysis: Further studies were performed to investigate delivery of paclitaxel using nanofibres into various cell lines. To further evaluate the efficiency of nanofibres in enhancing cytotoxicity of paclitaxel, live-dead cell analysis was conducted. Normal cells (CRL 1790), cancer cells (HT-29) and the MDR cells (CRL 2158) were cultured and exposed to paclitaxel alone, and paclitaxel along with nanofibres. The cells were cultured for 24 h at which time point, paclitaxel and the nanofibres were added to the culture. Live dead cell analysis was performed 24 h after exposure to the drug. […] The assay kit (Invitrogen) contains two fluorescent dyes, calcein AM ester (Ex 494 nm, Em 517 nm) which specifically enters live cells, gets de-esterified and stains the live cells green. The dying cells as well as dead cells are membrane compromised (leaky plasma membrane) and allows the entry of ethidium homodimer (Ex 517 nm/Em 617), which stains the nucleus red. […] Panels B, C represent control cells visualized at 617 nm (red, dead cells) and at 517 nm (green, live cells), respectively. Panel A is a composite image of untreated cells. Panels E, F represent the images of cells treated with paclitaxel (32 nM) recorded at the two wavelengths 617 and 517 nm respectively. Panel D is a composite image. Panels H and I show the cells treated with paclitaxel+nanofibres (32 nM+4 μg/ml nanofibers, the fibers and appropriate amount of paclitaxel were mixed in 5% DMSO and added to the culture medium of cells and allowed to incubate for 12 h). Panel G is a composite of the red and green images.

[3] = system: Human colorectal MDR cancer Cells (CRL 2158); conditions: B-Live/Dead cell analysis, paclitaxel 32 nM, 24 h, without or with nanofibre 4 μg/ml
Procedure: as §3, §4

[4] = system: Normal Human Intestinal Cells (CRL 1790); conditions: B-Live/Dead cell analysis; paclitaxel 32 nM, 24 h, without or with nanofibre 4 μg/ml
Procedure: as §3, §4

[5] = system: human colorectal cancer cells (HT 29)
Procedure: (§5) Cell culture: Three cell lines derived from colon, CRL 1790, a normal cell line, HT 29, a colorectal cancer cell line and CRL 2158 a multidrug resistant colorectal cancer cell line (ATCC) were used to evaluate the cytotoxicity of nanocomplexes. Cells were cultured in media specifically recommended for each cell line. For HT 29, the medium used was DMEM (Dulbecco's modified Eagle's medium, Sigma), for CRL 2158, the medium used was RPMI, and for CRL 1790, the medium used was EMEM (Eagle's minimum essential medium; Cedarlane Labs, Burlington, ON, Canada). All the media were supplemented with FBS, Penicillin/streptomycin, and L-glutamine. At confluency (˜80%), cells were washed with 1×PBS twice. Cells were incubated with trypsin-EDTA for 5 minutes and then diluted in respective media supplemented with 10% FBS before staining with trypan blue (50 μl of cells and 450 μl of trypan blue) and counting viable cells to evaluate cytotoxicity. The cytotoxicity was determined by trypan blue exclusion by living cells and blue staining of dead cells. The number of dead cells in a unit area was counted and expressed as a percentage of total cells in the area.
(§6) Cytotoxicity of nanoparticles and nanofibres against cancer cells: These studies evaluate the cytotoxic effects of the purified nanoparticles and the nanofibres isolated from sour cherry using normal human colonic epithelial cells (CRL 1790), human colorectal cancer cells (HT 29) and multidrug resistant human colorectal cancer cells (CRL 2158) in the presence or absence of paclitaxel. Nanoparticles were added as polyphenol equivalent aliquots, while the nanofibres were added on a weight basis. […]

[6] = system: multidrug resistant human colorectal cancer cells (CRL 2158)
Procedure: as §5, §6

[7] = system: normal human colonic epithelial cells (CRL 1790)
Procedure: as §5, §6

[8] = DPPH radical scavenging capacity of food powder; format: biochemical; conditions: positive control at the same concentrations as polyphenols
Procedure: The powder was dissolved in water and the antioxidant capacity of the solution was determined by estimating the DPPH Radical scavenging capacity of solution as polyphenol equivalent (estimated by Folin-Ciocalteau reagent) in micrograms. A 0.1 mM Folin-Ciocateau reagent was prepared in methanol, and the food powder solution was added in the specified amounts. The antioxidants were allowed to react with 1 ml of DPPH reagent, and the absorbance (purple, 517 nm absorption) was monitored. The decline in 517 nm absorbance was noted and expressed as % quenching in comparison to a control without polyphenol. […] Each point at a concentration represents an individual sample of food powder prepared;
The powder was dissolved in water and the antioxidant capacity of the solution was determined by estimating the DPPH Radical scavenging capacity of solution as polyphenol equivalent (estmated by Folin-Ciocalteau reagent) in micrograms. A 0.1 mM Folin-Ciocateau reagent was prepared in methanol, and the food powder solution was added in the specified amounts. The antioxidants were allowed to react with 1 ml of DPPH reagent, and the absorbance (purple, 517 nm absorption) was monitored. The decline in 517 nm absorbance was noted and expressed as % quenching in comparison to a control without polyphenol. […] Each point at a concentration represents an individual sample of food powder prepared.

With `O=C(O)CN(CC(=O)O)Cc1cc2c(cc1O)Oc1cc(O)c(CN(CC(=O)O)CC(=O)O)cc1C21OC(=O)c2ccccc21` [Calcein] as the compound, how does the “uptake into cells (in words)” value (HT 29 cells) read?
Its value is “comparatively very low; also recorded: Far reduced uptake”.

And the “uptake into cells (in words)” value [1]?
Its value is “comparatively very low”.

Which “% Living cells Colorectal Cancer Cell Line HT 29” value [2] does the source give for `CC(=O)O[C@H]1C(=O)[C@@]2(C)[C@H]([C@H](OC(=O)c3ccccc3)[C@]3(O)C[C@H](OC(=O)[C@H](O)[C@@H](NC(=O)c4ccccc4)c4ccccc4)C(C)=C1C3(C)C)[C@]1(OC(C)=O)CO[C@@H]1C[C@@H]2O` [Paclitaxel] here?
The value was 10.78%.

And the “% Living cells Colorectal MDR cell line CRL 2158” value [3]?
Its value is 46.00%.

What about the “% Living cells Colorectal MDR cell line CRL 2158” value ([3]; listed as paclitaxel) of the same compound?
Its value is ~50%.

What about the “% Living cells Normal Cell Line CRL 1790” value [4] of the same compound?
Its value is 97.6%.

And the “% Living cells Colorectal Cancer Cell Line HT 29” value ([5]; Paclitaxel 2 nM)?
Its value is 70.93%.

And the “% Living cells Colorectal Cancer Cell Line HT 29” value ([5]; Paclitaxel 8 nM)?
Its value is 59.11%.

And the “% Living cells Colorectal Cancer Cell Line HT 29” value ([5]; Paclitaxel 32 nM)?
Its value is 50% and 48.27%.

And the “% Living cells Colorectal MDR cell line CRL 2158” value ([6]; Paclitaxel 2 nM)?
The value was 90.86%.

And the “% Living cells Colorectal MDR cell line CRL 2158” value ([6]; Paclitaxel 8 nM)?
Its value is 86.17%.

What about the “% Living cells Colorectal MDR cell line CRL 2158” value ([6]; Paclitaxel 32 nM) of the same compound?
The value was 83.76%.

What about the “% Living cells Normal Cell Line CRL 1790” value ([7]; Paclitaxel 2 nM) of the same compound?
Its value is 86.66%.

And the “% Living cells Normal Cell Line CRL 1790” value ([7]; Paclitaxel 8 nM)?
The value was 74.28%.

And the “% Living cells Normal Cell Line CRL 1790” value ([7]; Paclitaxel 32 nM)?
The value was 66.79%.

For `Cc1c(C)c2c(c(C)c1O)CCC(C)(C(=O)O)O2` (stereo not shown) [Trolox], which TEAC value [8] is on record?
The TEAC value was 1.
